Residues, ends and D or L forms follow the SMILES beside them.
What was measured:
animal models of ALF = assay: Example 44: animal models of acute liver failure (ALF); settings: in vivo
Excerpt: Suitable animal models of ALF utilize surgical procedures, toxic liver injury, or a combination thereof. See Belanger & Butterworth, Metabolic Brain Disease, 20:409-423 (2005). Peptide conjugates, aromatic-cationic peptides, SPN10(s) with or without aromatic-cationic peptides or control vehicle will be administered prior to or simultaneously with a toxic or surgical insult. Hepatic function will be assessed by measuring serum hepatic enzymes (transaminases, alkaline phosphatase), serum bilirubin, serum ammonia, serum glucose, serum lactate, or serum creatinine. Efficacy of SPN10(s) (with or without aromatic-cationic peptides) or conjugates in preventing ALF will be indicated by a reduction in the occurrence or severity of the ALF as indicated by the above markers, as compared to control subjects.

[1] = system: Ang II-induced hypertensive cardiomyopathy; assay: Ang II (4 weeks) induced cardiac NADPH oxidase, p38 MAPK and apoptosis; format: in vivo
Excerpt: It is anticipated that SPN10(s) (with or without aromatic-cationic peptides) or peptide conjugates act downstream of NADPH oxidase and will reduce activation of p38 MAPK and apoptosis in response to Ang II. […] Mitochondrial ROS, either directly, or indirectly by activating apoptosis signal regulating kinase, may induce apoptosis. It is anticipated that Ang II will induce cardiac apoptosis, which will be shown through an increase in cleaved caspase-3.

Caco-2 cells = assay: Example 25: mitochondrial membrane potential after t-BHP (TMRM, CLSM); format: cell-based, human; settings: t-BHP 1 mM, 4 hours
Description: Caco-2 cells will be treated with t-BHP (1 mM) alone or in the presence of peptide conjugates (0.1 μM); aromatic-cationic peptides (an equivalent molar dose of aromatic-cationic peptide based on the concentration of the aromatic-cationic peptide administered in the peptide conjugate treatment group); SPN10(s) (an equivalent molar dose of SPN10 based on the concentration of SPN10 administered in the peptide conjugate treatment group); or SPN10(s) in combination with aromatic-cationic peptides (e.g., an equivalent molar dose of SPN10 based on the concentration of SPN10 administered in the peptide conjugate treatment group and an equivalent molar dose of aromatic-cationic peptide based on the concentration of aromatic-cationic peptide administered in the peptide conjugate treatment group) for 4 hours, and then incubated with TMRM and examined under CLSM.

[2] = system: isolated mouse liver mitochondria; assay: Example 20: spontaneous and antimycin-induced H2O2 production by isolated mitochondria
Description: Livers will be harvested from mice, homogenized in ice-cold buffer, and centrifuged at 13800×g for 10 min. The pellet will be washed once, re-suspended in 0.3 mL of wash buffer, and placed on ice until use. H2O2 will be measured using luminol chemiluminescence as described previously (Li, et al., Biochim. Biophys. Acta 1428, 1-12 (1999). 0.1 mg mitochondrial protein will be added to 0.5 mL potassium phosphate buffer (100 mM, pH 8.0) in the presence of vehicle, peptide conjugates, aromatic-cationic peptides, or SPN10(s) with or without aromatic-cationic peptides. 25 mM luminol and 0.7 IU horseradish peroxidase will be added, and chemiluminescence will be monitored with a Chronolog Model 560 aggregometer (Havertown, PA) for 20 minutes at 37° C. The amount of H2O2 produced will be quantified as the area under the curve (AUC) over 20 min, and all data will be normalized to AUC produced by mitochondria alone.

mitochondrial aconitase = assay: Example 53: mitochondrial aconitase activity in burn injury; settings: mouse, in vivo
Excerpt: Murine subjects will be subjected to burn injury or sham and administered peptide conjugates, aromatic-cationic peptides, SPN10(s) alone or in combination with aromatic-cationic peptides, or control vehicle as described above. Mitochondria will be isolated from burned and control tissues and mitochondrial aconitase activity assessed using a commercially available kit.

[3] = system: renal ischemia-reperfusion (IR) injury in rats; assay: Mitochondrial respiration and ATP synthesis after renal ischemia-reperfusion injury; format: in vivo, rat; settings: 45 minutes renal artery occlusion, 20 minutes or 1 hour reperfusion
Description: Animals will be subjected to bilateral occlusion of renal artery for 45 minutes followed by 20 minutes or 1 hour of reperfusion. Subjects will receive saline vehicle, a peptide conjugate (2.0 mg/kg s.c.), an aromatic-cationic peptide (an equivalent molar dose of aromatic-cationic peptide based on concentration of the aromatic-cationic peptide administered in the peptide conjugate group) SPN10 (an equivalent molar dose of SPN10 based on concentration of SPN10 administered in the peptide conjugate group), or SPN10(s) in combination with aromatic-cationic peptides (e.g., an equivalent molar dose of SPN10 based on the concentration of SPN10 administered in the peptide conjugate treatment group and an equivalent molar dose of aromatic-cationic peptide based on the concentration of aromatic-cationic peptide administered in the peptide conjugate treatment group) 30 minutes before ischemia and again at the time of reperfusion (n=4-5 in each group). It is anticipated that the peptide conjugate, aromatic-cationic peptide or SPN10(s) (with or without aromatic-cationic peptides) will improve oxygen consumption and ATP synthesis.

cell stress recovery = settings: Mitchell et al., bioRxiv, cited from earlier work
CD36 = assay: Example 4: CD36 mRNA in post-ischemic brain (real time PCR); format: in vivo, mouse; settings: treatment at 0 and 6 hours after 30 minute ischemia
Description: Wild-type mice will be given saline vehicle (Veh, i.p., n=6), peptide conjugates (5 mg/kg, i.p., n=6), aromatic-cationic peptides (e.g., an equivalent molar dose of aromatic-cationic peptide based on the concentration of the aromatic-cationic peptide administered in the peptide conjugate treatment group), SPN10(s) (e.g., an equivalent molar dose of SPN10 based on the concentration of SPN10 administered in the peptide conjugate treatment group), or SPN10(s) in combination with aromatic-cationic peptides (e.g., an equivalent molar dose of SPN10 based on the concentration of SPN10 administered in the peptide conjugate treatment group and an equivalent molar dose of aromatic-cationic peptide based on the concentration of aromatic-cationic peptide administered in the peptide conjugate treatment group) at 0 and 6 hours after a 30 minute period of ischemia. Levels of CD36 mRNA in post-ischemic brain will be determined using real time PCR.

SMILES: N=C(N)NCCC[C@H](NC(=O)[C@@H](N)Cc1c[nH]c2ccccc12)C(=O)N[C@@H](Cc1c[nH]c2ccccc12)C(=O)N[C@@H](CCCCN)C(N)=O [SPN10, H-L-Trp-L-Arg-L-Trp-L-Lys-NH2] (H-WRWK-NH2)
- reduced liver function after toxic or surgical liver insult (animal models of ALF): attenuate or prevent these effects
- Ang II-increased cardiac NADPH oxidase activity ([1]; 4 weeks of Ang II): not be changed
- activation of caspase-3 caused by Ang II (cleaved caspase-3) ([1]; Ang II): completely prevent
- phosphorylation of p38 MAPK ([1]; Ang II for 4 weeks): significantly and nearly fully attenuated
- mitochondrial depolarization caused by t-BHP (Caco-2 cells): protect against mitochondrial depolarization
- spontaneous production of H2O2 [2]: dose-dependently reduce the spontaneous production of H2O2
- production of H2O2 induced by antimycin ([2]; antimycin): dose-dependently reduce the production of H2O2 induced by antimycin
- mitochondrial aconitase activity after burn injury (mitochondrial aconitase): reduce mitochondrial aconitase activity to sham control levels
- oxygen consumption and ATP synthesis [3]: improve
- potency in cell stress recovery (cell stress recovery; among SS-31, SS-20, SPN4, SPN10): greatest potency
- performance compared with SS-31 (cell culture assays, structure-activity analysis) (cell stress recovery): consistently outperformed SS-31
- CD36 mRNA in the ipsilateral brain (CD36): significantly reduced

From patent publication US20240108740A1, “THERAPEUTIC COMPOSITIONS INCLUDING SPN10 AND USES THEREOF” (Stealth BioTherapeutics Inc., priority 2022, published 2024)
